Measured values: patent US11746085B2, “Triphenylsulfonium salt compound, and uses thereof” (Changzhou Tronly Advanced Electronic Materials Co., Ltd., priority 2018, dated 2023)

assay: Dissolution performance test: solubility in 3-ethyl-3-hydroxymethyl oxetane monomer; format: physicochemical; conditions: Table 3; maximum number of grams dissolved in 100 g 3-ethyl-3-hydroxymethyl oxetane monomer at 20° C.
Description: The solubility in 3-ethyl-3-hydroxymethyl oxetane monomer was tested for Compound A-1 to A-38 and C-1 to C-25, and comparative compounds B-1 and B-2 as well as D-1 and D-2 in the present invention, calculated based on the maximum number of grams dissolved in 100 g solvent at 20° C.

Row | Compound | Solubility [g]
1 | Cc1ccc([S+](c2ccc(OCCO)cc2)c2ccc(C)c(F)c2)cc1F [Compound A-9] | 24.3
2 | Cc1ccc([S+](c2ccc(Sc3ccccc3)cc2)c2ccc(C)c(F)c2)cc1F [Compound A-12] | 24.5
3 | Cc1ccc([S+](c2ccc(Oc3ccccc3)cc2)c2ccc(C)c(F)c2)cc1F [Compound A-13] | 23.8
4 | Cc1ccc([S+](c2ccc(/C=C/c3ccccc3)cc2)c2ccc(C)c(F)c2)cc1F [Compound A-37] | 22.4
5 | CCc1ccc([S+](c2ccc(OCCO)cc2)c2ccc(CC)c([N+](=O)[O-])c2)cc1[N+](=O)[O-] [Compound A-32] | 28.2
6 | COc1ccc([S+](c2ccc(C)c(F)c2)c2ccc(C)c(F)c2)cc1 [Compound A-1] | 25.7
7 | CCc1ccc([S+](c2ccc(OC)cc2)c2ccc(CC)c(F)c2)cc1F [Compound A-28] | 26.4
8 | Cc1ccc([S+](c2ccc(Sc3ccccc3)cc2)c2ccc(C)c([N+](=O)[O-])c2)cc1[N+](=O)[O-] [Compound A-27] | 22.3
9 | Cc1ccc([S+](c2ccccc2)c2ccccc2)cc1 [Compound B-2, reference compound] | 20.6
10 | Fc1ccc([S+](c2ccccc2)c2ccc(Sc3ccccc3)cc2)cc1F (stereo not shown) [Compound A-20] | 19.8
11 | Cc1ccc([S+](c2ccccc2)c2ccc(-c3ccccc3)cc2)cc1F (stereo not shown) [Compound A-21] | 20.1
12 | Cc1ccc([S+](c2ccccc2)c2ccccc2)cc1C(F)(F)F [Compound A-6] | 19.2
13 | Cc1ccc([S+](c2ccc(C)c(F)c2)c2ccc3c(c2)Cc2ccccc2-3)cc1F [Compound A-22] | 22.3
14 | COc1ccc([S+](c2ccc(C(C)=O)cc2)c2ccc(C(C)=O)cc2)cc1F [Compound A-8] | 23.4
15 | Cc1ccc([S+](c2ccc(C)c(C#N)c2)c2ccc(C)c(C#N)c2)cc1C [Compound A-18] | 23.2
16 | Cc1ccc([S+](c2ccc(C)c(F)c2)c2ccc3oc4ccccc4c3c2)cc1F [Compound A-24] | 23.1
17 | Fc1ccc([S+](c2ccccc2)c2ccccc2)cc1F [Compound A-5] | 19.1

Row | Compound | Solubility [g]
18 | Fc1cc([S+](c2ccc(Sc3ccccc3)cc2)c2ccc(Cc3ccccc3)c(F)c2)ccc1Cc1ccccc1 [Compound A-36] | 23.2
19 | CC(=O)c1ccc([S+](c2ccccc2)c2ccc(C)c(C#N)c2)cc1 (stereo not shown) [Compound A-7] | 20.6
20 | Cc1ccc([S+](c2ccccc2)c2ccccc2)cc1F [Compound A-4] | 19.5
21 | Cc1ccc([S+](c2ccc(Cc3ccccc3)cc2)c2ccc(C)c(F)c2)cc1F [Compound A-14] | 23.5
22 | Cc1ccc([S+](c2ccccc2)c2ccc(/C=C/c3ccccc3)cc2)cc1F (stereo not shown) [Compound A-38] | 23.5
23 | Cc1ccc([S+](c2ccc(-c3ccccc3)cc2)c2ccc(C)c(F)c2)cc1F [Compound A-15] | 23.4
24 | Cc1ccc([S+](c2ccc(C)c(F)c2)c2ccc(C)c(F)c2)cc1 [Compound A-3] | 22.5
25 | Fc1cccc([S+](c2ccccc2)c2ccccc2)c1 [Compound B-1, reference compound] | 12.1
26 | Cc1ccc(-[s+]2c3ccccc3c(=O)c3cc(C(C)C)ccc32)cc1F (stereo not shown) [Compound A-2] | 23.5
27 | CC(=O)c1cc([SH](c2ccc(Sc3ccccc3)cc2)c2ccc(C)c(C(C)=O)c2)ccc1C [Compound A-16] | 22.6
28 | Cc1ccc([S+](c2ccc(C)c(F)c2)c2ccc(C)c(F)c2)cc1 [Compound A-11] | 21.6
29 | CCc1ccc([S+](c2ccc(OC)cc2)c2ccc(CC)c(C(F)(F)F)c2)cc1C(F)(F)F [Compound A-31] | 27.6
30 | Cc1ccc([S+](c2ccc(Sc3ccccc3)cc2)c2ccc(C)c(C(=O)Cl)c2)cc1C(=O)Cl [Compound A-19] | 24.3
31 | Cc1ccc([SH](c2ccc(Sc3ccc(C(=O)c4ccccc4)cc3)cc2)c2ccc(C)c(F)c2)cc1F [Compound A-30] | 27.8
32 | COc1ccc([S+](c2ccc(Sc3ccccc3)cc2)c2ccc(OC)c(F)c2)cc1F [Compound A-35] | 24.8
33 | Cc1ccc([SH](c2ccc(C)c(F)c2)c2ccc(C)c(F)c2)cc1F [Compound A-10] | 23.8

same assay, conditions: Table 4; maximum number of grams dissolved in 100 g 3-ethyl-3-hydroxymethyl oxetane monomer at 20° C.

Row | Compound | Solubility [g]
34 | Cc1ccc([S+](c2ccc(Sc3ccc([S+](c4ccc(C)c([N+](=O)[O-])c4)c4ccc(C)c([N+](=O)[O-])c4)cc3)cc2)c2ccc(C)c([N+](=O)[O-])c2)cc1[N+](=O)[O-] [Compound C-3] | 23.4
35 | Cc1ccc([S+](c2ccc(Sc3ccc([S+](c4ccc(C)c(F)c4)c4ccc(C)c(F)c4)cc3C)c(C)c2)c2ccc(C)c(F)c2)cc1F [Compound C-12] | 25.3
36 | Cc1ccc([SH](c2ccc(C)c(F)c2)c2ccc3c(c2)oc2cc([SH](c4ccc(C)c(F)c4)c4ccc(C)c(F)c4)ccc23)cc1F [Compound C-23] | 23.6
37 | Cc1ccc([S+](c2ccc(Sc3ccc([S+](c4ccc(C)c(C#N)c4)c4ccc(C)c(C#N)c4)cc3)cc2)c2ccc(C)c(C#N)c2)cc1C#N [Compound C-4] | 23.1
38 | Cc1ccc([S+](c2ccc(Cc3ccc([S+](c4ccc(C)c([N+](=O)[O-])c4)c4ccc(C)c([N+](=O)[O-])c4)cc3)cc2)c2ccc(C)c([N+](=O)[O-])c2)cc1[N+](=O)[O-] [Compound C-9] | 23.1
39 | Cc1ccc([S+](c2ccc(C)c(F)c2)c2ccc3c(c2)sc2cc([S+](c4ccc(C)c(F)c4)c4ccc(C)c(F)c4)ccc23)cc1F [Compound C-24] | 23.5
40 | Cc1ccc([S+](c2ccc(-c3ccc([S+](c4ccc(C)c(C#N)c4)c4ccc(C)c(C#N)c4)cc3)cc2)c2ccc(C)c(C#N)c2)cc1C#N [Compound C-11] | 21.0
41 | Fc1cc([S+](c2ccc(Sc3ccc([S+](c4ccc(Cc5ccccc5)c(F)c4)c4ccc(Cc5ccccc5)c(F)c4)cc3)cc2)c2ccc(Cc3ccccc3)c(F)c2)ccc1Cc1ccccc1 [Compound C-16] | 24.4
42 | Cc1ccc([S+](c2ccc(C)c(F)c2)c2ccc3c(c2)Cc2cc([S+](c4ccc(C)c(F)c4)c4ccc(C)c(F)c4)ccc2-3)cc1F [Compound C-21] | 23.4
43 | Cc1ccc([S+](c2ccc(Sc3ccc([S+](c4ccc(C)c(F)c4)c4ccc(C)c(F)c4)cc3)cc2)c2ccc(C)c(F)c2)cc1F [Compound C-1] | 24.4
44 | Cc1ccc([S+](c2ccc(Sc3ccc([S+](c4ccc(C)c(C#N)c4)c4ccc(C)c(C#N)c4)cc3C)c(C)c2)c2ccc(C)c(C#N)c2)cc1C#N [Compound C-13] | 24.9
45 | CCn1c2cc([SH](c3ccc(C)c(C(F)(F)F)c3)c3ccc(C)c(C(F)(F)F)c3)ccc2c2ccc([SH](c3ccc(C)c(C(F)(F)F)c3)c3ccc(C)c(C(F)(F)F)c3)cc21 [Compound C-25] | 22.8
46 | Cc1ccc([S+](c2ccc(-c3ccc([S+](c4ccc(C)c(F)c4)c4ccc(C)c(F)c4)cc3)cc2)c2ccc(C)c(F)c2)cc1F [Compound C-10] | 21.4
47 | CC(C)c1ccc([S+](c2ccc(-c3ccc([S+](c4ccc(C(C)C)c(F)c4)c4ccc(C(C)C)c(F)c4)cc3)cc2)c2ccc(C(C)C)c(F)c2)cc1F [Compound C-19] | 24.8
48 | Cc1ccc([S+](c2ccc(/C=C/c3ccc([S+](c4ccc(C)c(F)c4)c4ccc(C)c(F)c4)cc3)cc2)c2ccc(C)c(F)c2)cc1F [Compound C-7] | 22.4
49 | COc1ccc([S+](c2ccccc2)c2ccc(Sc3ccc([S+](c4ccccc4)c4ccc(OC)c(F)c4)cc3)cc2)cc1F (stereo not shown) [Compound C-18] | 20.7
50 | Cc1ccc([S+](c2ccccc2)c2ccc(Sc3ccc([S+](c4ccccc4)c4ccc(C)c(C(F)(F)F)c4)cc3)cc2)cc1C(F)(F)F (stereo not shown) [Compound C-20] | 22.1
51 | CCc1ccc([S+](c2ccc(Sc3ccc([S+](c4ccc(CC)c(F)c4)c4ccc(CC)c(F)c4)cc3)cc2)c2ccc(CC)c(F)c2)cc1F [Compound C-5] | 25.1
52 | Cc1ccc([S+](c2ccc(Sc3ccc([S+](c4ccc(C)c(C(F)(F)F)c4)c4ccc(C)c(C(F)(F)F)c4)cc3)cc2)c2ccc(C)c(C(F)(F)F)c2)cc1C(F)(F)F [Compound C-2] | 24.3
53 | Cc1ccc([S+](c2ccccc2)c2ccc(Sc3ccc([S+](c4ccccc4)c4ccc(C)cc4)cc3)cc2)cc1 [Compound D-2, reference compound] | 19.3
54 | Cc1ccc([S+](c2ccccc2)c2ccc(Sc3ccc([S+](c4ccccc4)c4ccc(C)c(F)c4)cc3)cc2)cc1F (stereo not shown) [Compound C-17] | 21.5
55 | CCc1ccc([S+](c2ccc(Sc3ccc([S+](c4ccc(CC)c(C(F)(F)F)c4)c4ccc(CC)c(C(F)(F)F)c4)cc3)cc2)c2ccc(CC)c(C(F)(F)F)c2)cc1C(F)(F)F [Compound C-6] | 25.3
56 | Cc1ccc([S+](c2ccc(Oc3ccc([S+](c4ccc(C)c(F)c4)c4ccc(C)c(F)c4)cc3)cc2)c2ccc(C)c(F)c2)cc1F [Compound C-8] | 23.7
57 | Fc1cccc([S+](c2ccccc2)c2ccc(Sc3ccc([S+](c4ccccc4)c4cccc(F)c4)cc3)cc2)c1 [Compound D-1, reference compound] | 11.5
58 | CCCCC1(CCCC)c2cc([S+](c3ccc(C)c(F)c3)c3ccc(C)c(F)c3)ccc2-c2ccc([S+](c3ccc(C)c(F)c3)c3ccc(C)c(F)c3)cc21 [Compound C-22] | 24.5
